In brackets after ≈: the same amount, converted by molar mass. Activity calls are given as the source filed them. The calls are words filed in the database; no cut-off is given here. Numbered stars: 1 amine (or outer) side, 2 acyl side, 3 side chain; on linkers, the order of the positions; unused ones are H or OH. Bridge positions count the residues as written; N and C are the ends. Square brackets hold non-standard residues; d marks the D form. Peptide text beside a SMILES is read from it. * marks the point of attachment. hTyr(3S-OH,4S-OH,3'-OSO3H) = N[C@H](C(=O)O)[C@H](O)[C@@H](O)c1ccc(O)c(OS(=O)(=O)O)c1; Orn(4R-OH,5R-OH) = O=C([C@H](C[C@@H](O)[C@@H](O)N[*:3])N[*:1])[*:2]; Pro(3S-OH,4S-Me) = C[C@H]1CN[C@H](C(=O)O)[C@H]1O; X1 = CCCCCOc1ccc(-c2cc(-c3ccc(C(=O)*)cc3)no2)cc1; Gln(3R-OH) = NC(=O)C[C@@H](O)[C@H](N)C(=O)O; Hyp = O=C(O)[C@@H]1C[C@@H](O)CN1
Experiments:
Candida parapsilosis [1] = assay: Antifungal activity against Candida parapsilosis clinical isolate bloodstream form assessed as time required for 99% reduction in fungal growth at 32 mg/L by time-kill assay; assay type: functional
Candida metapsilosis [2] = assay: Antifungal activity against Candida metapsilosis clinical isolate bloodstream form assessed as time required for 50% reduction in fungal growth at 16 mg/L by time-kill assay; assay type: functional
Candida parapsilosis [3] = assay: Antifungal activity against Candida parapsilosis clinical isolate bloodstream form assessed as fungal count at 4 mg/L measured at 6 hrs by time-kill assay; assay type: functional
Candida parapsilosis [4] = assay: Antifungal activity against Candida parapsilosis clinical isolate bloodstream form assessed as time required for 99.9% reduction in fungal growth at 1 mg/L by time-kill assay; assay type: functional
Candida metapsilosis [5] = assay: Antifungal activity against Candida metapsilosis clinical isolate bloodstream form assessed as time required for 99% reduction in fungal growth at 1 mg/L by time-kill assay; assay type: functional
Candida metapsilosis [6] = assay: Antifungal activity against Candida metapsilosis clinical isolate bloodstream form assessed as time required for 99.9% reduction in fungal growth at 4 mg/L by time-kill assay; assay type: functional
Candida orthopsilosis [7] = assay: Antifungal activity against Candida orthopsilosis clinical isolate bloodstream form assessed as time required for 99.9% reduction in fungal growth at 4 mg/L by time-kill assay; assay type: functional
Candida metapsilosis [8] = assay: Antifungal activity against Candida metapsilosis clinical isolate bloodstream form assessed as time required for 50% reduction in fungal growth at 4 mg/L by time-kill assay; assay type: functional
Candida metapsilosis [9] = assay: Antifungal activity against Candida metapsilosis clinical isolate bloodstream form assessed as time required for 90% reduction in fungal growth at 0.25 mg/L by time-kill assay; assay type: functional
Candida parapsilosis [10] = assay: Antifungal activity against Candida parapsilosis clinical isolate bloodstream form assessed as time required for 90% reduction in fungal growth at 16 mg/L by time-kill assay; assay type: functional
Candida parapsilosis [11] = assay: Antifungal activity against Candida parapsilosis clinical isolate bloodstream form assessed as time required for 90% reduction in fungal growth at 1 mg/L by time-kill assay; assay type: functional
Candida orthopsilosis [12] = assay: Antifungal activity against Candida orthopsilosis clinical isolate bloodstream form assessed as induction of maximal fungal death at 16 mg/L after 48 hrs by time-kill assay; assay type: functional, organism-based
Candida parapsilosis [13] = assay: Antifungal activity against Candida parapsilosis clinical isolate bloodstream form assessed as time required for 99.9% reduction in fungal growth at 0.25 mg/L by time-kill assay; assay type: functional
Candida metapsilosis [14] = assay: Fungicidal activity against Candida metapsilosis isolate ATC193 bloodstream form by CLSI method; assay type: functional; conditions: Lodderomyces metapsilosis, isolate ATC-193
Candida metapsilosis [15] = assay: Antifungal activity against Candida metapsilosis clinical isolate bloodstream form assessed as time required for 99.9% reduction in fungal growth at 0.25 mg/L by time-kill assay; assay type: functional
Candida metapsilosis [16] = assay: Antifungal activity against Candida metapsilosis clinical isolate bloodstream form assessed as time required for 99.9% reduction in fungal growth at 32 mg/L by time-kill assay; assay type: functional
Candida orthopsilosis [17] = assay: Antifungal activity against Candida orthopsilosis clinical isolate bloodstream form assessed as time required for 99% reduction in fungal growth at 32 mg/L by time-kill assay; assay type: functional
Candida metapsilosis [18] = assay: Antifungal activity against Candida metapsilosis clinical isolate bloodstream form assessed as time required for 99% reduction in fungal growth at 0.25 mg/L by time-kill assay; assay type: functional
Candida parapsilosis [19] = assay: Antifungal activity against Candida parapsilosis clinical isolate bloodstream form assessed as time required for 50% reduction in fungal growth at 16 mg/L by time-kill assay; assay type: functional
Candida parapsilosis [20] = assay: Antifungal activity against Candida parapsilosis clinical isolate bloodstream form assessed as induction of miniparadoxical effect at 16 mg/L after 48 hrs by time-kill assay; assay type: functional, organism-based
Candida orthopsilosis [21] = assay: Antifungal activity against Candida orthopsilosis clinical isolate bloodstream form assessed as time required for 99% reduction in fungal growth at 0.25 mg/L by time-kill assay; assay type: functional
Candida parapsilosis [22] = assay: Antifungal activity against Candida parapsilosis clinical isolate bloodstream form assessed as time required for 99% reduction in fungal growth at 0.25 mg/L by time-kill assay; assay type: functional
Candida parapsilosis [23] = assay: Antifungal activity against Candida parapsilosis clinical isolate bloodstream form assessed as inhibition of fungal regrowth at 0.03 to 32 mg/L after 6 hrs by time-kill assay; assay type: functional, organism-based
Candida parapsilosis [24] = assay: Antifungal activity against Candida parapsilosis clinical isolate bloodstream form assessed as time required for 99.9% reduction in fungal growth at 32 mg/L by time-kill assay; assay type: functional
Candida orthopsilosis [25] = assay: Antifungal activity against Candida orthopsilosis clinical isolate bloodstream form assessed as time required for 99% reduction in fungal growth at 4 mg/L by time-kill assay; assay type: functional
Candida orthopsilosis [26] = assay: Antifungal activity against Candida orthopsilosis clinical isolate bloodstream form assessed as time required for 50% reduction in fungal growth at 32 mg/L by time-kill assay; assay type: functional
Candida metapsilosis [27] = assay: Antifungal activity against Candida metapsilosis clinical isolate bloodstream form assessed as mild induction of fungal death at 0.03 to 32 mg/L after 6 hrs by time-kill assay; assay type: functional, organism-based
Candida parapsilosis [28] = assay: Antifungal activity against Candida parapsilosis clinical isolate bloodstream form assessed as time required for 50% reduction in fungal growth at 32 mg/L by time-kill assay; assay type: functional
Candida parapsilosis [29] = assay: Antifungal activity against Candida parapsilosis clinical isolate bloodstream form assessed as time required for 50% reduction in fungal growth at 1 mg/L by time-kill assay; assay type: functional
Candida metapsilosis [30] = assay: Fungicidal activity against Candida metapsilosis isolate CP-133 bloodstream form by CLSI method; assay type: functional; conditions: Lodderomyces metapsilosis
Candida orthopsilosis [31] = assay: Antifungal activity against Candida orthopsilosis clinical isolate bloodstream form assessed as time required for 90% reduction in fungal growth at 0.25 mg/L by time-kill assay; assay type: functional
Candida metapsilosis [32] = assay: Antifungal activity against Candida metapsilosis clinical isolate bloodstream form assessed as time required for 99.9% reduction in fungal growth at 16 mg/L by time-kill assay; assay type: functional
Candida metapsilosis [33] = assay: Antifungal activity against Candida metapsilosis clinical isolate bloodstream form assessed as time required for 90% reduction in fungal growth at 32 mg/L by time-kill assay; assay type: functional
Candida metapsilosis [34] = assay: Antifungal activity against Candida metapsilosis clinical isolate bloodstream form assessed as time required for 99% reduction in fungal growth at 16 mg/L by time-kill assay; assay type: functional
Candida orthopsilosis [35] = assay: Fungicidal activity against Candida orthopsilosis isolate ATC194 bloodstream form by CLSI method; assay type: functional; conditions: Lodderomyces orthopsilosis, isolate ATC-194
Candida metapsilosis [36] = assay: Antifungal activity against Candida metapsilosis clinical isolate bloodstream form assessed as minimum concentration required for => 3-log decrease in fungal growth after 12 to 48 hrs by time-kill assay; assay type: functional
Candida metapsilosis [37] = assay: Antifungal activity against Candida metapsilosis clinical isolate bloodstream form assessed as time required for 99% reduction in fungal growth at 32 mg/L by time-kill assay; assay type: functional

In the case of CC[C@H](C)C[C@H](C)CCCCCCCCC(=O)N[C@H]1C[C@@H](O)[C@@H](NCCN)NC(=O)[C@@H]2[C@@H](O)CCN2C(=O)[C@H]([C@H](O)CCN)NC(=O)[C@H]([C@H](O)[C@@H](O)c2ccc(O)cc2)NC(=O)[C@@H]2C[C@@H](O)CN2C(=O)[C@H]([C@@H](C)O)NC1=O [CASPOFUNGIN], the Time (Candida parapsilosis [1]) is reported as greater than 48 h, the Time (Candida metapsilosis [2]) is reported as 2.59 h and the log10cfu (Candida parapsilosis [3]) is reported as 1.43 /ml. The Time (Candida parapsilosis [4]) was greater than 48 h, the Time (Candida metapsilosis [5]) was greater than 48 h and the Time (Candida metapsilosis [6]) was greater than 48 h. The Time (Candida orthopsilosis [7]) was 34.05 h, the Time (Candida metapsilosis [8]) was 7.7 h and the Time (Candida metapsilosis [9]) was greater than 48 h. For the same molecule, the Time (Candida parapsilosis [10]) was 8.61 h, the Time (Candida parapsilosis [11]) was greater than 48 h and the Activity (Candida orthopsilosis [12]) was “Active”. The Time (Candida parapsilosis [13]) was greater than 48 h, the MIC (Candida metapsilosis [14]) was 0.12 µg/mL (≈ 0.11 µM) and the Time (Candida metapsilosis [15]) was greater than 48 h. It also gave a Time (Candida metapsilosis [16]) of 19.8 h, a Time (Candida orthopsilosis [17]) greater than 48 h and a Time (Candida metapsilosis [18]) greater than 48 h. The Time (Candida parapsilosis [19]) was 2.59 h, the Activity (Candida parapsilosis [20]) was “Active” and the Time (Candida orthopsilosis [21]) was greater than 48 h. The Time (Candida parapsilosis [22]) was greater than 48 h, the inhibition (Candida parapsilosis [23]) was “inactive” and the Time (Candida parapsilosis [24]) was greater than 48 h. The Time (Candida orthopsilosis [25]) was 22.7 h, the Time (Candida orthopsilosis [26]) was 10.53 h and the Activity (Candida metapsilosis [27]) was “Active”. For the same molecule, the Time (Candida parapsilosis [28]) was 1.99 h, the Time (Candida parapsilosis [29]) was 22.3 h and the MIC (Candida metapsilosis [30]) was 0.5 µg/mL (≈ 0.457 µM). It also gave a Time (Candida orthopsilosis [31]) greater than 48 h, a Time (Candida metapsilosis [32]) of 25.82 h and a Time (Candida metapsilosis [33]) of 6.6 h. The Time (Candida metapsilosis [34]) was 17.21 h, the MIC (Candida orthopsilosis [35]) was 0.5 µg/mL (≈ 0.457 µM) and the MED (Candida metapsilosis [36]) was 14 mg/L. It also gave a Time (Candida metapsilosis [37]) of 13.2 h.
CCCCCOc1ccc(-c2cc(-c3ccc(C(=O)N[C@H]4C[C@@H](O)[C@@H](O)NC(=O)[C@@H]5[C@@H](O)[C@@H](C)CN5C(=O)[C@H]([C@H](O)CC(N)=O)NC(=O)[C@H]([C@H](O)[C@@H](O)c5ccc(O)c(OS(=O)(=O)O)c5)NC(=O)[C@@H]5C[C@@H](O)CN5C(=O)[C@H]([C@@H](C)O)NC4=O)cc3)no2)cc1 [MICAFUNGIN] (X1-[Orn(4R-OH,5R-OH)]T[Hyp][hTyr(3S-OH,4S-OH,3'-OSO3H)][Gln(3R-OH)][Pro(3S-OH,4S-Me)]; lactam 1-C) was tested, and the Time (Candida parapsilosis [1]) was greater than 48 h, the Time (Candida metapsilosis [2]) was 1.45 h and the Time (Candida parapsilosis [4]) was “inactive”. For the same molecule, the Time (Candida metapsilosis [5]) was 20.3 h, the Time (Candida metapsilosis [6]) was 17.68 h and the Time (Candida orthopsilosis [7]) was 16.59 h. It also gave a Time (Candida metapsilosis [8]) of 1.77 h, a Time (Candida metapsilosis [9]) greater than 48 h and a Time (Candida parapsilosis [10]) of 31.55 h. The Time (Candida parapsilosis [11]) was “inactive”, the Activity (Candida orthopsilosis [12]) was “Active” and the Time (Candida parapsilosis [13]) was “inactive”. It also gave an MIC (Candida metapsilosis [14]) of 0.25 µg/mL (≈ 0.197 µM), a Time (Candida metapsilosis [15]) greater than 48 h and a Time (Candida metapsilosis [16]) of 14.29 h. The Time (Candida orthopsilosis [17]) was 10.22 h, the Time (Candida metapsilosis [18]) was greater than 48 h and the Time (Candida parapsilosis [19]) was 9.5 h. The Time (Candida orthopsilosis [21]) was greater than 48 h, the Time (Candida parapsilosis [22]) was “inactive” and the inhibition (Candida parapsilosis [23]) was “inactive”. The Time (Candida parapsilosis [24]) was greater than 48 h, the Time (Candida orthopsilosis [25]) was 11.06 h and the Time (Candida orthopsilosis [26]) was 1.54 h. For the same molecule, the Activity (Candida metapsilosis [27]) was “Active”, the Time (Candida parapsilosis [28]) was 6.16 h and the Time (Candida parapsilosis [29]) was “inactive”. The MIC (Candida metapsilosis [30]) was 0.12 µg/mL (≈ 0.0945 µM), the Time (Candida orthopsilosis [31]) was greater than 48 h and the Time (Candida metapsilosis [32]) was 14.41 h. It also gave a Time (Candida metapsilosis [33]) of 4.76 h, a Time (Candida metapsilosis [34]) of 9.61 h and an MIC (Candida orthopsilosis [35]) of 0.5 µg/mL (≈ 0.394 µM). The Time (Candida metapsilosis [37]) was 9.53 h.

Reference: ChEMBL document CHEMBL1255421, “In vitro fungicidal activities of echinocandins against Candida metapsilosis, C. orthopsilosis, and C. parapsilosis evaluated by time-kill studies” (2010)
